According to patent US20070082880A1 (priority 2005, published 2007):

Target: T1, human PKCθ full length enzyme (Homo sapiens, UniProt Q04759)
T1 construct: human PKCθ full length enzyme (Panvera Catalog No. P2996); purchased Panvera P2996
Experiment: PKCθ IMAP Assay
Assay type: biochemical
Details: average value when one or more samples were tested; ATP 6 uM, PKCθ 1 nM
In short: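 IMAP fluorescence polarization after 20 min with binding beads measured phosphorylation of 100 nM 5FAM-peptide. Reactions held 1 nM full-length human PKCθ, 6 uM ATP, 5% DMSO and DTT-containing buffer, 25 min at room temperature. Compounds tested as 2:1 serial dilutions; controls lacked ATP or enzyme.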

T1 sequence (Q04759 whole entry): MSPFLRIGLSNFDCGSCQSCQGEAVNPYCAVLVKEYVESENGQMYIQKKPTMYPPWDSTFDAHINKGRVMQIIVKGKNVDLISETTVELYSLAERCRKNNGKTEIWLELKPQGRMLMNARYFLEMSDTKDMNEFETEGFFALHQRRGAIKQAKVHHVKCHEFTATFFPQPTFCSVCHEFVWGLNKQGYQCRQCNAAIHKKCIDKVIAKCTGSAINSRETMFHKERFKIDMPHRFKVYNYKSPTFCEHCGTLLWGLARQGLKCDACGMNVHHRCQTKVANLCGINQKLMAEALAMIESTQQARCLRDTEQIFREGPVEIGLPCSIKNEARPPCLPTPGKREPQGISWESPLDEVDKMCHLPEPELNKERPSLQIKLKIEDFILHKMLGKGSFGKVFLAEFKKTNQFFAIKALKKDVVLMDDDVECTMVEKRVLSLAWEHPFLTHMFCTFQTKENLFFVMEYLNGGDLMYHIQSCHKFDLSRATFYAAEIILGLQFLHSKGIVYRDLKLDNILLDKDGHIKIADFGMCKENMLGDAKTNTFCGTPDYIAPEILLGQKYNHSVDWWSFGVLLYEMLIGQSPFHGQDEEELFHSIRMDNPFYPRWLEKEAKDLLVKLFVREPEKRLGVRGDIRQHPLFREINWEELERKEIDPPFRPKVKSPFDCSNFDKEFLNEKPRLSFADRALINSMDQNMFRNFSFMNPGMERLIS

IC50 [nM] | Compound
77 | CN(C)Cc1cscc1-c1cc2c(Nc3ccc4[nH]ccc4c3)c(C#N)cnc2s1 [Compound 464, 2-{4-[(dimethylamino)methyl]-3-thienyl}-4-(1H-indol-5-ylamino)thieno[2,3-b]pyridine-5-carbonitrile]
49 | CN(C)Cc1ccc2sc(-c3cc4c(Nc5ccc6[nH]ccc6c5)c(C#N)cnc4s3)cc2c1 [Compound 465, 2-{5-[(dimethylamino)methyl]-1-benzothien-2-yl}-4-(1H-indol-5-ylamino)thieno[2,3-b]pyridine-5-carbonitrile]
64 | Cc1c(Nc2c(C#N)cnc3sc(-c4cc(CN(C)C)cc(OC(C)C)c4)cc23)ccc2[nH]ccc12 [Compound 466, 2-{3-[(dimethylamino)methyl]-5-isopropoxyphenyl}-4-[(4-methyl-1H-indol-5-yl)amino]thieno[2,3-b]pyridine-5-carbonitrile]
171 | Cc1c(Nc2c(C#N)cnc3sc(-c4cc5cc(CN(C)C)ccc5s4)cc23)ccc2[nH]ccc12 [Compound 467, 2-{5-[(dimethylamino)methyl]-1-benzothien-2-yl}-4-[(4-methyl-1H-indol-5-yl)amino]thieno[2,3-b]pyridine-5-carbonitrile]
16 | Cc1c(Nc2c(C#N)cnc3sc(-c4csc(CN(C)C)c4)cc23)ccc2[nH]ccc12 [Compound 468, 2-{5-[(dimethylamino)methyl]-3-thienyl}-4-[(4-methyl-1H-indol-5-yl)amino]thieno[2,3-b]pyridine-5-carbonitrile]
151 | Cc1c(Nc2c(C#N)cnc3sc(-c4ccccc4CNCCCO)cc23)ccc2[nH]ccc12 [Compound 469, 2-(2-{[(3-hydroxypropyl)amino]methyl}phenyl)-4-[(4-methyl-1H-indol-5-yl)amino]thieno[2,3-b]pyridine-5-carbonitrile]
57 | Cc1c(Nc2c(C#N)cnc3sc(-c4ccccc4CNCCO)cc23)ccc2[nH]ccc12 [Compound 470, 2-(2-{[(2-hydroxyethyl)amino]methyl}phenyl)-4-[(4-methyl-1H-indol-5-yl)amino]thieno[2,3-b]pyridine-5-carbonitrile]
143 | N#Cc1cnc2sc(C3=CCNCC3)cc2c1Nc1cccc2[nH]ccc12 [Compound 473, 4-(1H-indol-4-ylamino)-2-(1,2,3,6-tetrahydropyridin-4-yl)thieno[2,3-b]pyridine-5-carbonitrile]
10 | Cc1c(Nc2c(C#N)cnc3sc(C4=CCNCC4)cc23)ccc2[nH]ccc12 [Compound 474, 4-[(4-methyl-1H-indol-5-yl)amino]-2-(1,2,3,6-tetrahydropyridin-4-yl)thieno[2,3-b]pyridine-5-carbonitrile]
153 | Cc1c(Nc2c(C#N)cnc3sc(C4=CCN(Cc5ccccc5)CC4)cc23)ccc2[nH]ccc12 [Compound 476, 2-(1-benzyl-1,2,3,6-tetrahydropyridin-4-yl)-4-[(4-methyl-1H-indol-5-yl)amino]thieno[2,3-b]pyridine-5-carbonitrile]
70 | Cc1c(Nc2c(C#N)cnc3sc(C4CCNCC4)cc23)ccc2[nH]ccc12 [Compound 478, 4-[(4-methyl-1H-indol-5-yl)amino]-2-piperidin-4-ylthieno[2,3-b]pyridine-5-carbonitrile]
1970 | Cc1c(Nc2c(C#N)cnc3sc(C4CCN(Cc5ccccc5)C4)cc23)ccc2[nH]ccc12 (stereo not shown) [Compound 479, 2-(1-benzylpyrrolidin-3-yl)-4-[(4-methyl-1H-indol-5-yl)amino]thieno[2,3-b]pyridine-5-carbonitrile]
93 | Cc1c(Nc2c(C#N)cnc3sc(-c4cccc(OC[C@@H](C)O)c4)cc23)ccc2[nH]ccc12 [Compound 482, 2-(3-{[(2R)-2-hydroxypropyl]-oxy}phenyl)-4-[(4-methyl-1H-indol-5-yl)amino]thieno[2,3-b]pyridine-5-carbonitrile]
59 | Cc1c(Nc2c(C#N)cnc3sc(-c4cccc(OC[C@H](C)O)c4)cc23)ccc2[nH]ccc12 [Compound 483, 2-(3-{[(2S)-2-hydroxypropyl]-oxy}phenyl)-4-[(4-methyl-1H-indol-5-yl)amino]thieno[2,3-b]pyridine-5-carbonitrile]

Continued, compound first:

Compound | IC50 [nM]
Cc1c(Nc2c(C#N)cnc3sc(-c4cc5ccccc5[nH]4)cc23)ccc2[nH]ccc12 [Compound 434, 2-(1H-indol-2-yl)-4-[(4-methyl-1H-indol-5-yl)amino]thieno[2,3-b]pyridine-5-carbonitrile] | 70
CC(=O)Nc1ccccc1-c1cc2c(Nc3ccc4[nH]ccc4c3C)c(C#N)cnc2s1 [Compound 435, N-(2-{5-cyano-4-[(4-methyl-1H-indol-5-yl)amino]thieno[2,3-b]pyridin-2-yl}phenyl)acetamide] | 282
Cc1c(Nc2c(C#N)cnc3sc(-c4ccccc4N)cc23)ccc2[nH]ccc12 [Compound 436, 2-(2-aminophenyl)-4-[(4-methyl-1H-indol-5-yl)amino]thieno[2,3-b]pyridine-5-carbonitrile] | 215
Cc1c(Nc2c(C#N)cnc3sc(-c4cccc(O)c4)cc23)ccc2[nH]ccc12 [Compound 437, 2-(3-hydroxyphenyl)-4-[(4-methyl-1H-indol-5-yl)amino]thieno[2,3-b]pyridine-5-carbonitrile] | 11
Cc1c(Nc2c(C#N)cnc3sc(-c4cccnc4)cc23)ccc2[nH]ccc12 [Compound 438, 4-[(4-methyl-1H-indol-5-yl)amino]-2-pyridin-3-ylthieno[2,3-b]pyridine-5-carbonitrile] | 14
Cc1c(Nc2c(C#N)cnc3sc(-c4ccncc4)cc23)ccc2[nH]ccc12 [Compound 439, 4-[(4-methyl-1H-indol-5-yl)amino]-2-pyridin-4-ylthieno[2,3-b]pyridine-5-carbonitrile] | 13
Cc1c(Nc2c(C#N)cnc3sc(-c4ccccn4)cc23)ccc2[nH]ccc12 [Compound 440, 4-[(4-methyl-1H-indol-5-yl)amino]-2-pyridin-2-ylthieno[2,3-b]pyridine-5-carbonitrile] | 16
Cc1c(Nc2c(C#N)cnc3sc(-c4ccc(O)cc4)cc23)ccc2[nH]ccc12 [Compound 441, 2-(4-hydroxyphenyl)-4-[(4-methyl-1H-indol-5-yl)amino]thieno[2,3-b]pyridine-5-carbonitrile] | 29
Cc1c(Nc2c(C#N)cnc3sc(-c4ccccc4O)cc23)ccc2[nH]ccc12 [Compound 442, 2-(2-hydroxyphenyl)-4-[(4-methyl-1H-indol-5-yl)amino]thieno[2,3-b]pyridine-5-carbonitrile] | 273
Cc1c(Nc2c(C#N)cnc3sc(C#CCCN4CCN(C)CC4)cc23)ccc2[nH]ccc12 [Compound 450, 4-[(4-methyl-1H-indol-5-yl)amino]-2-[4-(4-methylpiperazin-1-yl)but-1-yn-1-yl]thieno[2,3-b]pyridine-5-carbonitrile] | 126
Cc1cc(CN(C)C)cc(-c2cc3c(Nc4ccc5[nH]ccc5c4C)c(C#N)cnc3s2)c1 [Compound 454, 2-{3-[(dimethylamino)methyl]-5-methylphenyl}-4-[(4-methyl-1H-indol-5-yl)amino]thieno[2,3-b]pyridine-5-carbonitrile] | 8
CCCOc1c(CN(C)C)cc(C)cc1-c1cc2c(Nc3ccc4[nH]ccc4c3C)c(C#N)cnc2s1 [Compound 455, 2-{3-[(dimethylamino)methyl]-5-methyl-2-propoxyphenyl}-4-[(4-methyl-1H-indol-5-yl)amino]thieno[2,3-b]pyridine-5-carbonitrile] | 29
COc1ccc(-c2cc3c(Nc4ccc5[nH]ccc5c4)c(C#N)cnc3s2)cc1CN(C)C [Compound 456, 2-{3-[(dimethylamino)methyl]-4-methoxyphenyl}-4-(1H-indol-5-ylamino)thieno[2,3-b]pyridine-5-carbonitrile] | 318
COc1ccc(CN(C)C)cc1-c1cc2c(Nc3ccc4[nH]ccc4c3C)c(C#N)cnc2s1 [Compound 457, 2-{5-[(dimethylamino)methyl]-2-methoxyphenyl}-4-[(4-methyl-1H-indol-5-yl)amino]thieno[2,3-b]pyridine-5-carbonitrile] | 5
Cc1c(Nc2c(C#N)cnc3sc(-c4cccc(CN(C)C)c4)c(C)c23)ccc2[nH]ccc12 [Compound 458, 2-{3-[(dimethylamino)methyl]phenyl}-3-methyl-4-[(4-methyl-1H-indol-5-yl)amino]thieno[2,3-b]pyridine-5-carbonitrile] | 99
COc1ccc(CN(C)C)cc1-c1sc2ncc(C#N)c(Nc3ccc4[nH]ccc4c3C)c2c1C [Compound 459, 2-{5-[(dimethylamino)methyl]-2-methoxyphenyl}-3-methyl-4-[(4-methyl-1H-indol-5-yl)amino]thieno[2,3-b]pyridine-5-carbonitrile] | 243
Cc1c(Nc2c(C#N)cnc3sc(-c4ccc(CN(C)C)cc4)c(C)c23)ccc2[nH]ccc12 [Compound 460, 2-{4-[(dimethylamino)methyl]phenyl}-3-methyl-4-[(4-methyl-1H-indol-5-yl)amino]thieno[2,3-b]pyridine-5-carbonitrile] | 61
COc1ccc(CN2CCN(C)CC2)cc1-c1cc2c(Nc3ccc4[nH]ccc4c3C)c(C#N)cnc2s1 [Compound 461, 2-{2-methoxy-5-[(4-methylpiperazin-1-yl)methyl]phenyl}-4-[(4-methyl-1H-indol-5-yl)amino]thieno[2,3-b]pyridine-5-carbonitrile] | 6
Cc1c(Nc2c(C#N)cnc3sc(-c4cncc(CN(C)C)c4)cc23)ccc2[nH]ccc12 [Compound 462, 2-{5-[(dimethylamino)methyl]pyridin-3-yl}-4-[(4-methyl-1H-indol-5-yl)amino]thieno[2,3-b]pyridine-5-carbonitrile] | 83
Cc1c(Nc2c(C#N)cnc3sc(-c4cc(CN(C)C)ccc4F)cc23)ccc2[nH]ccc12 [Compound 463, 2-{5-[(dimethylamino)methyl]-2-fluorophenyl}-4-[(4-methyl-1H-indol-5-yl)amino]thieno[2,3-b]pyridine-5-carbonitrile] | 14
